ChEMBL document CHEMBL1201862, “PubChem BioAssay data set” (2004)
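Briefly, cells in 96-well plates were exposed to five compound concentrations for 48 h, and endpoints were estimated by linear interpolation. GI50: concentration for 50% inhibition of growth.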 Active and inactive are the calls of the source. Rule as the data show it: active = GI50 up to about 1.1 µM and inactive = higher.

Columns and labels:
Assay in all cases: inhibition of tumour cell growth, NCI panel, 48 h
[1] = test system: HOP-92
[2] = test system: IGROV-1
[3] = test system: Hs-578T
[4] = test system: DU-145
[5] = test system: HCT-15
[6] = test system: SNB-75
[7] = test system: NCI/ADR-RES
[8] = test system: LOX IMVI
[9] = test system: K562
[10] = test system: CAKI-1
[11] = test system: A549
[12] = test system: T47D
[13] = test system: OVCAR-3
[14] = test system: NCI-H522
[15] = test system: SK-OV-3
[16] = test system: RXF 393
[17] = test system: SR
[18] = test system: TK-10
[19] = test system: EKVX
[20] = test system: NCI-H23
[21] = test system: BT-549
[22] = test system: MOLT-4
[23] = test system: OVCAR-8
[24] = test system: Malme-3M
[25] = test system: SNB-19
[26] = test system: KM12
[27] = test system: NCI-H226
[28] = test system: SW-620
[29] = test system: OVCAR-5
[30] = test system: MDA-MB-231
[31] = test system: OVCAR-4
[32] = test system: UACC-62
[33] = test system: M14
[34] = test system: UO-31
[35] = test system: MDA-MB-435
[36] = test system: NCI-H460
[37] = test system: MCF7
[38] = test system: RPMI-8226
[39] = test system: SK-MEL-2
[40] = test system: UACC-257
[41] = test system: 786-0
[42] = test system: SF-295
[43] = test system: COLO 205
[44] = test system: HL-60
[45] = test system: PC-3
[46] = test system: SK-MEL-5
[47] = test system: ACHN
[48] = test system: HCT-116
[49] = test system: HT-29
[50] = test system: SN12C
[51] = test system: CCRF-CEM
[52] = test system: SF-539
[53] = test system: SK-MEL-28
[54] = test system: SF-268
[55] = test system: A498
[56] = test system: HOP-62
[57] = test system: HCC 2998
[58] = test system: U-251

Measured: GI50

FC1C2=C(SC1(F)F)C1CCC2C1 (stereo unspecified)
inactive: [1] > 100 µM | [2] > 100 µM | [3] > 100 µM | [4] > 100 µM | [6] > 100 µM | [7] > 100 µM | [8] > 100 µM | [9] > 100 µM | [10] > 100 µM | [11] > 100 µM | [12] > 100 µM | [13] > 100 µM | [14] > 100 µM | [15] > 100 µM | [16] > 100 µM | [17] > 100 µM | [18] > 100 µM | [19] > 100 µM | [20] > 100 µM | [21] > 100 µM | [22] > 100 µM | [23] > 100 µM | [24] > 100 µM | [25] > 100 µM | [26] > 100 µM | [27] > 100 µM | [28] > 100 µM | [29] > 100 µM | [30] > 100 µM | [31] > 100 µM | [32] > 100 µM | [33] > 100 µM | [34] > 100 µM | [35] > 100 µM | [36] > 100 µM | [37] > 100 µM | [38] > 100 µM | [39] > 100 µM | [40] > 100 µM | [41] > 100 µM | [42] > 100 µM | [43] > 100 µM | [44] > 100 µM | [45] > 100 µM | [46] > 100 µM | [47] > 100 µM | [48] > 100 µM | [49] > 100 µM
> 100 µM: [5]

ClCCc1ccccc1CC1=NCCc2ccccc21
33 µM: [5]
inactive: [1] 28.1 µM | [2] 32 µM | [3] 28.5 µM | [4] > 100 µM | [6] 22 µM | [7] 21.9 µM | [8] 76.7 µM | [9] 28.4 µM | [50] 40.7 µM | [10] 33 µM | [11] 33.2 µM | [12] 21.9 µM | [13] 28.8 µM | [14] 16.7 µM | [15] 44.7 µM | [51] 39.9 µM | [16] 21.7 µM | [17] > 100 µM | [18] 41.7 µM | [19] 22.1 µM | [20] 21.5 µM | [21] 30.3 µM | [22] 26.9 µM | [23] 28.4 µM | [52] 38.8 µM | [53] 47.6 µM | [54] 29 µM | [25] 18.1 µM | [26] 29.3 µM | [27] 22.5 µM | [28] 29.9 µM | [29] 40.6 µM | [30] 38.1 µM | [31] 43.5 µM | [32] 28.6 µM | [33] 24.5 µM | [34] 14.4 µM | [35] 28.8 µM | [36] 25.8 µM | [55] 37.6 µM | [56] 34.8 µM | [37] 27.7 µM | [38] 16.3 µM | [39] 18.5 µM | [40] 34 µM | [41] 42.6 µM | [57] 25.1 µM | [42] 39.3 µM | [43] 24 µM | [44] 31.3 µM | [45] 30.5 µM | [46] 22.8 µM | [47] 30.8 µM | [58] 31.8 µM | [48] 32.5 µM | [49] 17.4 µM
